In patent publication US8815950B2, “Pharmaceutical compositions and method of using levodopa and carbidopa” (Janssen Biotech, Inc., priority 2003, dated 2014):
Values after ≈ are worked out from the molar mass of the structure shown. Where two headings read alike, the source gives them in different places. Blank lines part the entries; values can stand above or below the compound they belong to.

Columns and labels:
Type in all cases: physicochemical
[1] = Solubility of levodopa in citrate buffer at varying pH and buffer strength
Method: Solutions were made using Citric acid and tribasic Sodium Citrate dihydrate Initially a 1.0 M citric acid solution was made by weighing out 19.2 g Citric acid (FW 192.1) into a 100 mL volumetric flask and diluting with HPLC grade water. This was repeated with the Sodium Citrate (FW 294.1), by weighting out 29.4 g of sodium citrate in into a 100 mL volumetric flask and diluting to 100 mL with water. A series of 8 of 20 mL scintillation vials were then labeled and prepared as follows:
These pH adjustments were made with the sodium citrate (also 1.0 M) to keep a consistent molarity with the citrate. From these mother vials, 2 subsequent sets of solution were made for the molar concentrations 0.45 and 0.15 M. 0.45 M is for a 3:1 buffer and 0.15 M is for a 1:1 buffer. These solutions were also pH adjusted with molar equivalent solution to keep the pH value consistent throughout each dilution and after adding the levodopa.

[2] = Stability of levodopa and carbidopa solutions, HPLC potency test
Method: A formulation of: […] This powder mixture was dissolved in water at a concentration of 5.5 mg/ml of levodopa. This solution was filter through a 0.22 micrometer filter (with PVDF membrane) and then stored at temperatures of 4 degrees C., 25 degrees C. and 40 degrees C. […] This powder mixture was dissolved in water at concentration of 1.0 mg/ml of levodopa. This solution was filtered through a 0.22 micrometer filter (with PVDF membrane) and then stored at temperatures of 4 degrees C., 25 degrees C. and 40 degrees C. The sample solutions were submitted for HPLC potency test at each time point. The stability was monitored in percentage change compared to the initial potency.

[3] = Levodopa solubility in 3.5 mg/ml ascorbic acid solution; conditions: aqueous buffer, thermodynamic from solid, stirring 24 hour at RT, read-out: concentration of levodopa in the filtration (maximum solubility)
Method: Levedopa solubility in ascorbic acid solution an ascorbic acid concentration of 3.5 mg/ml was tested. A sample of 3.5 mg/ml ascorbic acid was made by adding 70.0 mg of ascorbic acid into 20 ml of water. Then, 80.0 mg of levodopa powder was dissolved into the 3.5 mg/ml ascorbic sample by stirring for 24 hour at RT. The projected levodopa concentration was 4 mg/ml. The sample was filtered through a 0.22μ PVDF filter to remove the insoluble levodopa. The filtration was assayed by HPLC at 10× dilution with water. The HPLC data indicated the concentration of levodopa in the filtration was 2.0 mg/ml.

[4] = Levodopa/Ascorbic/Carbidopa/at 1/3/0.2 at 4 C., 1 Day
[5] = Levodopa/Ascorbic/Carbidopa/at 1/3/0.2 at 4 C., 2 Day
[6] = Levodopa/Ascorbic/Carbidopa/at 1/3/0.2 at 4 C., 7 Day
[7] = Levodopa/Ascorbic/Carbidopa/at 1/3/0.2 at 4 C., Initial
[8] = Levodopa/Ascorbic/Carbidopa/at 1/3/0.2 at 25 C., 1 Day
[9] = Levodopa/Ascorbic/Carbidopa/at 1/3/0.2 at 25 C., 2 Day
[10] = Levodopa/Ascorbic/Carbidopa/at 1/3/0.2 at 25 C., 7 Day
[11] = Levodopa/Ascorbic/Carbidopa/at 1/3/0.2 at 25 C., Initial
[12] = Levodopa/Ascorbic/Carbidopa/at 1/3/0.2 at 40 C., 1 Day
[13] = Levodopa/Ascorbic/Carbidopa/at 1/3/0.2 at 40 C., 2 Day
[14] = Levodopa/Ascorbic/Carbidopa/at 1/3/0.2 at 40 C., 7 Day
[15] = Levodopa/Ascorbic/Carbidopa/at 1/3/0.2 at 40 C., Initial
[16] = Levodopa/Citric/Carbidopa/Sucrose at 1/3/0.2/1 at 4 C., 1 Day
[17] = Levodopa/Citric/Carbidopa/Sucrose at 1/3/0.2/1 at 4 C., 2 Day
[18] = Levodopa/Citric/Carbidopa/Sucrose at 1/3/0.2/1 at 4 C., 3 Day
[19] = Levodopa/Citric/Carbidopa/Sucrose at 1/3/0.2/1 at 4 C., 7 Day
[20] = Levodopa/Citric/Carbidopa/Sucrose at 1/3/0.2/1 at 4 C., Initial
[21] = Levodopa/Citric/Carbidopa/Sucrose at 1/3/0.2/1 at 25 C., 1 Day
[22] = Levodopa/Citric/Carbidopa/Sucrose at 1/3/0.2/1 at 25 C., 2 Day
[23] = Levodopa/Citric/Carbidopa/Sucrose at 1/3/0.2/1 at 25 C., 3 Day
[24] = Levodopa/Citric/Carbidopa/Sucrose at 1/3/0.2/1 at 25 C., 7 Day
[25] = Levodopa/Citric/Carbidopa/Sucrose at 1/3/0.2/1 at 25 C., Initial
[26] = Levodopa/Citric/Carbidopa/Sucrose at 1/3/0.2/1 at 40 C., 1 Day
[27] = Levodopa/Citric/Carbidopa/Sucrose at 1/3/0.2/1 at 40 C., 2 Day
[28] = Levodopa/Citric/Carbidopa/Sucrose at 1/3/0.2/1 at 40 C., 3 Day
[29] = Levodopa/Citric/Carbidopa/Sucrose at 1/3/0.2/1 at 40 C., 7 Day
[30] = Levodopa/Citric/Carbidopa/Sucrose at 1/3/0.2/1 at 40 C., Initial

- solubility ([1]; pH 1.5, aqueous buffer, Citrate buffer 0.15M pH1.5, read-out: Conc (levodopa solubility)): 7200 µg/mL (≈ 36.5 mM)
- solubility ([1]; pH 1.5, aqueous buffer, Citrate buffer 0.45M pH1.5, read-out: Conc (levodopa solubility)): 11400 µg/mL (≈ 57.8 mM)
- solubility ([1]; pH 1.5, aqueous buffer, Citrate buffer 1.0M pH 1.5, read-out: Conc (levodopa solubility)): 17900 µg/mL (≈ 90.9 mM)
- solubility ([1]; pH 2.5, aqueous buffer, Citrate buffer 0.15M pH2.5, read-out: Conc (levodopa solubility)): 4870 µg/mL (≈ 24.7 mM)
- solubility ([1]; pH 2.5, aqueous buffer, Citrate buffer 0.45M pH2.5, read-out: Conc (levodopa solubility)): 5820 µg/mL (≈ 29.5 mM)
- solubility ([1]; pH 2.5, aqueous buffer, Citrate buffer 1.0M pH 2.5, read-out: Conc (levodopa solubility)): 7430 µg/mL (≈ 37.7 mM)
- solubility ([1]; pH 3, aqueous buffer, Citrate buffer 0.15M pH3.0, read-out: Conc (levodopa solubility)): 4210 µg/mL (≈ 21.3 mM)
- solubility ([1]; pH 3, aqueous buffer, Citrate buffer 0.45M pH3.0, read-out: Conc (levodopa solubility)): 4850 µg/mL (≈ 24.6 mM)
- solubility ([1]; pH 3, aqueous buffer, Citrate buffer 1.0M pH 3.0, read-out: Conc (levodopa solubility)): 5930 µg/mL (≈ 30.1 mM)
- solubility ([1]; pH 3.5, aqueous buffer, Citrate buffer 0.15M pH3.5, read-out: Conc (levodopa solubility)): 3900 µg/mL (≈ 19.8 mM)
- solubility ([1]; pH 3.5, aqueous buffer, Citrate buffer 0.45M pH3.5, read-out: Conc (levodopa solubility)): 4510 µg/mL (≈ 22.9 mM)
- solubility ([1]; pH 3.5, aqueous buffer, Citrate buffer 1.0M pH 3.5, read-out: Conc (levodopa solubility)): 5230 µg/mL (≈ 26.5 mM)
- solubility ([1]; pH 4, aqueous buffer, Citrate buffer 0.15M pH4.0, read-out: Conc (levodopa solubility)): 3790 µg/mL (≈ 19.2 mM)
- solubility ([1]; pH 4, aqueous buffer, Citrate buffer 0.45M pH4.0, read-out: Conc (levodopa solubility)): 4250 µg/mL (≈ 21.6 mM)
- solubility ([1]; pH 4, aqueous buffer, Citrate buffer 1.0M pH 4.0, read-out: Conc (levodopa solubility)): 4650 µg/mL (≈ 23.6 mM)
- solubility ([1]; pH 4.5, aqueous buffer, Citrate buffer 0.15M pH4.5, read-out: Conc (levodopa solubility)): 3880 µg/mL (≈ 19.7 mM)
- solubility ([1]; pH 4.5, aqueous buffer, Citrate buffer 0.45M pH4.5, read-out: Conc (levodopa solubility)): 4250 µg/mL (≈ 21.6 mM)
- solubility ([1]; pH 4.5, aqueous buffer, Citrate buffer 1.0M pH 4.5, read-out: Conc (levodopa solubility)): 4440 µg/mL (≈ 22.5 mM)
- solubility ([1]; pH 5, aqueous buffer, Citrate buffer 0.15M pH5.0, read-out: Conc (levodopa solubility)): 3880 µg/mL (≈ 19.7 mM)
- solubility ([1]; pH 5, aqueous buffer, Citrate buffer 0.45M pH5.0, read-out: Conc (levodopa solubility)): 4150 µg/mL (≈ 21 mM)
- solubility ([1]; pH 5, aqueous buffer, Citrate buffer 1.0M pH 5.0, read-out: Conc (levodopa solubility)): 4170 µg/mL (≈ 21.1 mM)
- solubility ([1]; pH 6, aqueous buffer, Citrate buffer 0.15M pH6.0, read-out: Conc (levodopa solubility)): 3950 µg/mL (≈ 20 mM)
- solubility ([1]; pH 6, aqueous buffer, Citrate buffer 0.45M pH6.0, read-out: Conc (levodopa solubility)): 4160 µg/mL (≈ 21.1 mM)
- solubility ([1]; pH 6, aqueous buffer, Citrate buffer 1.0M pH 6.0, read-out: Conc (levodopa solubility)): 3870 µg/mL (≈ 19.6 mM)
- HPLC potency, percentage compared to the initial potency [2, 4]: 100%
- HPLC potency, percentage compared to the initial potency [2, 5]: 100%
- HPLC potency, percentage compared to the initial potency [2, 6]: 102%
- HPLC potency, percentage compared to the initial potency [2, 7]: 100%
- HPLC potency, percentage compared to the initial potency [2, 8]: 100%
- HPLC potency, percentage compared to the initial potency [2, 9]: 100%
- HPLC potency, percentage compared to the initial potency [2, 10]: 102%
- HPLC potency, percentage compared to the initial potency [2, 11]: 100%
- HPLC potency, percentage compared to the initial potency [2, 12]: 100%
- HPLC potency, percentage compared to the initial potency [2, 13]: 101%
- HPLC potency, percentage compared to the initial potency [2, 14]: 104%
- HPLC potency, percentage compared to the initial potency [2, 15]: 100%
- HPLC potency, percentage compared to the initial potency [2, 16]: 100%
- HPLC potency, percentage compared to the initial potency [2, 17]: 100%
- HPLC potency, percentage compared to the initial potency [2, 18]: 100%
- HPLC potency, percentage compared to the initial potency [2, 19]: 100%
- HPLC potency, percentage compared to the initial potency [2, 20]: 100%
- HPLC potency, percentage compared to the initial potency [2, 21]: 100%
- HPLC potency, percentage compared to the initial potency [2, 22]: 100%
- HPLC potency, percentage compared to the initial potency [2, 23]: 100%
- HPLC potency, percentage compared to the initial potency [2, 24]: 100%
- HPLC potency, percentage compared to the initial potency [2, 25]: 100%
- HPLC potency, percentage compared to the initial potency [2, 26]: 100%
- HPLC potency, percentage compared to the initial potency [2, 27]: 100%
- HPLC potency, percentage compared to the initial potency [2, 28]: 100%
- HPLC potency, percentage compared to the initial potency [2, 29]: 100%
- HPLC potency, percentage compared to the initial potency [2, 30]: 100%
- solubility at 24 h [3]: 2000 µg/mL (≈ 10.1 mM)
SMILES: N[C@@H](Cc1ccc(O)c(O)c1)C(=O)O [Levodopa]

- HPLC potency, percentage compared to the initial potency [2, 4]: 101%
- HPLC potency, percentage compared to the initial potency [2, 5]: 101%
- HPLC potency, percentage compared to the initial potency [2, 6]: 101%
- HPLC potency, percentage compared to the initial potency [2, 7]: 100%
- HPLC potency, percentage compared to the initial potency [2, 8]: 99%
- HPLC potency, percentage compared to the initial potency [2, 9]: 97%
- HPLC potency, percentage compared to the initial potency [2, 10]: 87%
- HPLC potency, percentage compared to the initial potency [2, 11]: 100%
- HPLC potency, percentage compared to the initial potency [2, 12]: 94%
- HPLC potency, percentage compared to the initial potency [2, 13]: 88%
- HPLC potency, percentage compared to the initial potency [2, 14]: 88%
- HPLC potency, percentage compared to the initial potency [2, 15]: 100%
- HPLC potency, percentage compared to the initial potency [2, 16]: 100%
- HPLC potency, percentage compared to the initial potency [2, 17]: 100%
- HPLC potency, percentage compared to the initial potency [2, 18]: 101%
- HPLC potency, percentage compared to the initial potency [2, 19]: 100%
- HPLC potency, percentage compared to the initial potency [2, 20]: 100%
- HPLC potency, percentage compared to the initial potency [2, 21]: 98%
- HPLC potency, percentage compared to the initial potency [2, 22]: 96%
- HPLC potency, percentage compared to the initial potency [2, 23]: 96%
- HPLC potency, percentage compared to the initial potency [2, 24]: 91%
- HPLC potency, percentage compared to the initial potency [2, 25]: 100%
- HPLC potency, percentage compared to the initial potency [2, 26]: 91%
- HPLC potency, percentage compared to the initial potency [2, 27]: 84%
- HPLC potency, percentage compared to the initial potency [2, 28]: 81%
- HPLC potency, percentage compared to the initial potency [2, 29]: 75%
- HPLC potency, percentage compared to the initial potency [2, 30]: 100%
SMILES: C[C@@](Cc1ccc(O)c(O)c1)(NN)C(=O)O [Carbidopa]
